Results taken from EP0082577A1, “Fungicidal composition and method of combating fungal growth” (SHELL INTERNATIONALE RESEARCH MAATSCHAPPIJ B.V., priority 1981, dated 1983).
Counter-ions that a name gives are not always drawn.

How the values were obtained:
Assay type in all cases: in vivo
[1] = test system: Plamopara viticola; assay: Grapevine leaf disc test: disease suppression; conditions: alone, 7 days at 21°C
Method: Leaf discs of grapevine (cv. Cabernet Sauvignon) 23mm in diameter, were supported on water agar in petri dishes, and sprayed with various aqueous test preparations. After the spray had dried, the discs were inoculated with Plamopara viticola. The dishes were closed and incubated for 7 days at 21°C. At the end of this period, the percentage area of each disc covered with sporulating downy mildew was estimated, and compared with that on inoculated, untreated control discs.
In this Table, the theorectical degree of disease suppression, assuming that the two fungicides act independently (i.e. additively) is calculated using the formula: [formula] where x and y are the activities of the two components used separately. If the actual degree of disease suppression (as measured in the test) is greater than the calculated value, then the two fungicides have interacted synergistically.

[2] = test system: Plasmopara viticola; assay: Field spray test on adult fruit-bearing grapevines: disease level; conditions: percentage of disease level on control vines
Method: (§1) The fungicidal and phytotoxic effects of the sodium salt of N-hydroxy-N-formylalanine in admixture with N-(trichlormethyl- thio)phthalimide were compared to those of the N-hydroxy-N-formylalanine salt alone using the following procedure. The test solutions were sprayed onto adult, fruit-bearing grapevines (cv Sauvignon) at 18 day intervals during June, July and August. Four replicate plots were treated. Controls were left untreated.
(§2) The test solutions contained the active ingredient(s), distilled water and 100ppm of Tween 20 surfactant (Trade mark).
Seven days after the first spray application and 13 days after the third spray application the vines were innoculated with a spore suspension containing Plasmopara viticola.
(§3) Assessments of the disease level and phytotoxicity were made 19 days after the 1st treatment, and then after a further 4 weeks (11 days after the 3rd treatment) .
The extent of disease control in the test is expressed as a percentage of the disease level occuring on the control vines.

[3] = test system: grapevines (cv Sauvignon); assay: Field spray test on adult fruit-bearing grapevines: phytotoxicity rating; conditions: mean rating 0-5
Method: as §1, §2, §3
Phytotoxicity is expressed as a mean rating compared with the control according to the criteria, • 0 = absolutely no phytotoxicity • 1 = doubtful occurence of phytotoxicity • 2 = distinct, but very slight phytotoxicity • 3,4 = slight to moderate phytotoxicity • 5 = phytotoxicity of an unacceptable degree.

[4] = 250 ppm sodium salt alone, 11 days after 3rd application
[5] = 250 ppm sodium salt alone, 19 days after 1st application
[6] = 500 ppm sodium salt alone, 11 days after 3rd application
[7] = 500 ppm sodium salt alone, 19 days after 1st application

Compound	Disease Suppression (% of control) Actual ([1]; 1 ppm in spray)	Disease Suppression (% of control) Actual ([1]; 5 ppm in spray)	Disease Suppression (% of control) Actual ([1]; 10 ppm in spray)	DISEASE [2, 4]	DISEASE [2, 5]	DISEASE [2, 6]	DISEASE [2, 7]	PHYTOTOXICITY [3, 4]	PHYTOTOXICITY [3, 5]	PHYTOTOXICITY [3, 6]	PHYTOTOXICITY [3, 7]	Disease Suppression (% of control) Actual ([1]; 7.5 ppm in spray)	Disease Suppression (% of control) Actual ([1]; 15.0 ppm in spray)	Disease Suppression (% of control) Actual ([1]; 30.0 ppm in spray)
O=C1c2ccccc2C(=O)N1SC(Cl)(Cl)Cl [N-(trichloromethylthio) phthalimide, N-(trichloromethylthio)phthalimide, reference compound]	-16.2 % of control	-2.7 % of control	82.4 % of control	–	–	–	–	–	–	–	–	–	–	–
CC(C(=O)O)N(O)C=O (centres unmarked) [sodium salt of N-hydroxy-N-formylalanine]	–	–	–	26.8%	34.7%	14.4%	17.6%	0.8	0.5	1.5	2.0	-8.1 % of control	-2.7 % of control	37.8 % of control
